In brackets after ≈: the same amount, converted by molar mass.
Tests used:
[1] = tested on: Trypanosoma cruzi (Tulahuan-LACZ amstigotes in PEM); assay: In vitro drug activity assay, protozoon A; assay type: cell-based; conditions: amastigotes in murine peritoneal macrophages, 3 days
Method: (§1) In vitro activity of selected compounds of the invention against different protozoa was assessed as follows.
Murine (CD1) peritoneal macrophages were harvested 24 hours after starch induction and dispensed into 96-well plates at a concentration of 4×10^5 mL. After 24 hours, the cells were infected with Trypanosoma cruzi Tulahuan LAC-Z amastigotes (grown and cultured according to Buckner et al., Infection and Immunity 1999, 67(1): 403-409). 24 hours later, the infected cells were exposed to the test compounds (compounds of the invention as well as known prior art compounds) for 3 days and 50 μL of 500 μM CPRG-1% Nonidet P-40 was added to each well. The plates were read after 2 to 5 hours at 570 nm (Buckner et al., Antimicrobial Agents and Chemotherapy 1996, 40(11): 2592-2597). ED50 values were calculated with Msxlfit (IDBS).
(§2) The following protozoa were assessed: • A) Trypanosoma cruzi (Tulahuan-LACZ amstigotes in PEM, Lorente S O et al., Antimicrobial agents and chemotherapy 2004, 48(8): 2937-2950; Buckner et al., Infection and Immunity 1999, 67(1): 403-409; Buckner et al., Antimicrobial Agents and Chemotherapy 1996, 40(11): 2592-2597) • B) Trypanosoma brucei rhodesiense (strain STIB900, Lorente S O et al., Antimicrobial agents and chemotherapy 2004, 48(8): 2937-2950; Habtemariam S, BMC Pharmacology 2003, 3:6) • C) Plasmodium falciparum (strain K1, Korsinczky M et al., Antimicrobial agents and chemotherapy 2000, 44(8): 2100-2108; Thaitong S and Beale G H, Trans. R. Soc. Trop. Med. Hyg. 1981, 75: 271-273; Trager W and Jensen J B, Science 1976, 193: 673-675) • D) Plasmodium faiciparum (strain 3D7, Mu et al., PLoS Biology 2005, 3(10): e335)

[2] = tested on: Plasmodium faiciparum (strain 3D7); assay: In vitro drug activity assay, protozoon D; assay type: cell-based, Plasmodium falciparum; conditions: strain 3D7, 3[H]-hypoxanthine method
Method: as §1
(§3) Plasmodium falciparum strain K1 and strain 3D7 parasites were cultured according to Trager W and Jensen J B (Science 1976, 193: 673-675). In vitro drug susceptibility assays with the test compounds were carried out according to Korsinczky M et al. (Antimicrobial agents and chemotherapy 2000, 44(8): 2100-2108) and Fivelman Q L et al. (Antimicrobial agents and chemotherapy 2004, 48(11): 4097-4102) using a ^3[H]-hypoxanthine radioisotope method. ED50 values were calculated with Msxlfit (IDBS).
as §2

[3] = tested on: Trypanosoma brucei rhodesiense (strain STIB900); assay: In vitro drug activity assay, protozoon B; assay type: cell-based; conditions: bloodstream form trypomastigotes, 72 hours, Alamar Blue
Method: as §1
Trypanosoma brucei rhodesiense STIB900 bloodstream form trypomastigotes were maintained in HMI-18 medium (Hirumi H, Hirumi K, J Parasitol. 1989, 75(6):985-989) with 15% heat-inactivated fetal calf serum at 37° C., 5% CO2, humidified atmosphere. Trypomastigotes were washed and resuspended in fresh medium at a concentration of 2×10^5 mL. Test compounds were given to the trypomastigotes and plates were incubated for 72 hours at 37° C., 5% CO2, humidified atmosphere. At 72 hours the plates were assessed microscopically before Alamar Blue was added (Raz et al., Acta Trop. 1997, 68: 139-147). Plates were read after 5 to 6 hours at EX/EM 530/585 nm with a filter cutoff at 550 nm. ED50 values were calculated with Msxlfit (IDBS).
as §2

[4] = tested on: Plasmodium falciparum (strain K1); assay: In vitro drug activity assay, protozoon C; assay type: cell-based; conditions: strain K1, 3[H]-hypoxanthine method
Method: as §1, §3, §2

[5] = tested on: Cryptococcus neoformans ATCC 90112; assay: Anti-fungal broth microdilution (MIC), fungus H; assay type: cell-based; conditions: yeast protocol, more than 80% inhibition, 48 h
Method: (§4) Anti-fungal activity of selected compounds of the invention was assessed by means of anti-fungal susceptibility tests as follows.
(§5) The antifungal activities of the compounds of the invention against different fungi were measured according to standard broth microdilution methods of the US National Committee for Clinical Laboratory standards (NCCLS) for yeasts (NCCLS document M27-A, 1997) and filamentous fungi (NCCLS document M38-A, 2002).
(§6) Stock solutions of compounds of the invention were freshly prepared on the days of experiments equal to 1.28 mg/10 ml media. Serial dilutions were performed to achieve the following testing concentrations: 64 μg/ml, 32 μg/ml, 16 μg/ml, 8 μg/ml, 4 μg/ml, 2 μg/ml, 1 μg/ml, 0.5 μg/ml, 0.25 μg/ml and 0.125 μg/ml.
(§7) An inoculum of 10^6 CFU/ml of the fungi strain was prepared in the appropriate medium and transferred to test tubes for incubation.
(§8) The method is used to determine the minimum inhibitory concentrations (MIC) of drugs on fungi strains. […] For the filamentous fungi protocol, MIC determination took place after 48 to 72 h of culture at 35° C. and was defined at that concentration which produced more than 50% visible growth inhibition.

[6] = tested on: Cryptococcus neoformans H99; assay: Anti-fungal broth microdilution (MIC), fungus I; assay type: cell-based; conditions: yeast protocol, more than 80% inhibition, 48 h
Method: as §4, §5, §6, §7, §8

[7] = tested on: Aspergillus fumigatus 040-200167; assay: Anti-fungal broth microdilution (MIC), fungus C; assay type: cell-based; conditions: filamentous protocol, more than 50% growth inhibition, 48 to 72 h
Method: as §4, §5, §6, §7, §8

[8] = tested on: Aspergillus fumigatus ATCC 204305; assay: Anti-fungal broth microdilution (MIC), fungus A; assay type: cell-based; conditions: filamentous protocol, more than 50% growth inhibition, 48 to 72 h
Method: as §4, §5, §6, §7, §8

[9] = tested on: Cryptococcus gattii ATCC 32608; assay: Anti-fungal broth microdilution (MIC), fungus J; assay type: cell-based; conditions: yeast protocol, more than 80% inhibition, 48 h
Method: as §4, §5, §6, §7, §8

[10] = tested on: Candida albicans ATCC 10231; assay: Anti-fungal broth microdilution (MIC), fungus D; assay type: cell-based; conditions: yeast protocol, more than 80% inhibition, 48 h
Method: as §4, §5, §6, §7, §8

[11] = tested on: Aspergillus fumigatus 322-384; assay: Anti-fungal broth microdilution (MIC), fungus B; assay type: cell-based; conditions: filamentous protocol, more than 50% growth inhibition, 48 to 72 h
Method: as §4, §5, §6, §7, §8

[12] = tested on: Candida albicans ATCC 90028; assay: Anti-fungal broth microdilution (MIC), fungus E; assay type: cell-based; conditions: yeast protocol, more than 80% inhibition, 48 h
Method: as §4, §5, §6, §7, §8

[13] = tested on: Candida parapsilosis ATCC 22019; assay: Anti-fungal broth microdilution (MIC), fungus G; assay type: cell-based; conditions: yeast protocol, more than 80% inhibition, 48 h
Method: as §4, §5, §6, §7, §8

Candida albicans TS3 = assay: Anti-fungal broth microdilution (MIC), fungus F; assay type: cell-based; conditions: yeast protocol, more than 80% inhibition, 48 h
Method: as §4, §5, §6, §7, §8

[14] = tested on: Bacteroides fragilis DSM 2151 (ATCC 25285); assay: Anti-bacterial bouillon microdilution assay (MIC), bacterium E; assay type: cell-based; conditions: anaerob, 24 h
Method: (§9) Selected compounds of the invention were tested in a bouillon microdilution assay method according to the DIN 58940 (www.din.de) guidelines for determination of susceptibility of bacterial strains with regard to cell growth inhibition. The assay method quantifies bacterial cell growth which corresponds to the turbidity of the liquid culture medium by photometric measurement carried out at 595 nm.
(§10) The method of MIC determination was performed according to DIN 58940-5. The volumina were adapted according to the microdilution method as described in DIN 58940-7 guideline.
(§11) Dependent on water solubility, compounds of the invention were dissolved either in water or ethanol in a concentration of 10 mg/ml. Subsequently, the stock was further diluted in water to a concentration of 512 μg/ml. The following serial dilutions (factor 2) were performed in water resulting in the following […] testing concentrations: 256 μg/ml, 128 μg/ml, 64 μg/ml, 32 μg/ml, 16 μg/ml, 8 μg/ml, 4 μg/ml, 2 μg/ml, 1 μg/ml, 0.5 μg/ml, 0.25 μg/ml and 0.125 μg/ml. Diluted compounds of the invention were transferred in 100 μl volume to the microtiter plate wells.
(§12) Pre-cultures of bacteria were grown in appropriate liquid media (refer to ATCC webpage, www.atcc.org) and afterwards were inoculated in corresponding liquid medium. 100 μl of the inoculums [adjusted to an amount of app. 1×10^6 microorganisms per ml (range of 10^5-10^8 microorganisms per ml)] were added to each of the testing compound concentrations and cultivated under the appropriate conditions.
(§13) Before and after incubation, bacterial growth was determined by photometric analysis against a positive control containing growing bacteria without compound and a sterile/negative control containing only the medium.

[15] = tested on: Moraxella catarrhalis DMS 11994 (ATCC 43617); assay: Anti-bacterial bouillon microdilution assay (MIC), bacterium D; assay type: cell-based; conditions: 24 h
Method: as §9, §10, §11, §12, §13

CCCCCCCCCCCCCCCCOP(=O)([O-])OC1CC[N+](C)(CCc2ccccc2)CC1 (stereo not shown) [Compound 4, Phosphoric acid hexadecyl ester 1-methyl-1-phenethyl-piperidin-4-yl ester]
ED50 (μg/mL), protozoon A [1]: 1.93 µg/mL (≈ 3.69 µM)
ED50 (μg/mL), protozoon D [2]: 15.32 µg/mL (≈ 29.3 µM)
ED50 (μg/mL), protozoon B [3]: 12.29 µg/mL (≈ 23.5 µM)
ED50 (μg/mL), protozoon C [4]: 5.44 µg/mL (≈ 10.4 µM)

CCCCCCCCCCCCCCCCCCOP(=O)([O-])OC1CC[N+](CC)(CC)CC1 [Compound 5, Phosphoric acid 1,1-diethyl-piperidin-4-yl ester octadecyl ester]
ED50 (μg/mL), protozoon A [1]: 1.43 µg/mL (≈ 2.92 µM)
MIC [5]: 1.5 µg/mL (≈ 3.06 µM)
ED50 (μg/mL), protozoon D [2]: 16.31 µg/mL (≈ 33.3 µM)
ED50 (μg/mL), protozoon B [3]: 14.20 µg/mL (≈ 29 µM)
MIC [6]: 2 µg/mL (≈ 4.08 µM)
ED50 (μg/mL), protozoon C [4]: 21.26 µg/mL (≈ 43.4 µM)
MIC ([7]; Aspergillus fumigatus, 040200167): 24 µg/mL (≈ 49 µM)
MIC ([8]; Aspergillus fumigatus, ATCC204305): 6 µg/mL (≈ 12.3 µM)
MIC [9]: 0.75 µg/mL (≈ 1.53 µM)
MIC [10]: 2 µg/mL (≈ 4.08 µM)
MIC ([11]; Aspergillus fumigatus, 322384): 8 µg/mL (≈ 16.3 µM)
MIC [12]: 2 µg/mL (≈ 4.08 µM)
MIC [13]: 3 µg/mL (≈ 6.13 µM)
MIC (Candida albicans TS3): 2 µg/mL (≈ 4.08 µM)

CCCCCCCCCCCCCCCCOP(=O)([O-])OCC[N+]12CCC(CC1)CC2 [Compound 3, Phosphoric acid 2-(1-aza-bicyclo[2.2.2]oct-1-yl)-ethyl ester hexadecyl ester]
ED50 (μg/mL), protozoon A [1]: 0.33 µg/mL (≈ 0.718 µM)
MIC, fungus H [5]: 1.5 µg/mL (≈ 3.26 µM)
ED50 (μg/mL), protozoon D [2]: 2.25 µg/mL (≈ 4.9 µM)
ED50 (μg/mL), protozoon B [3]: 25.03 µg/mL (≈ 54.5 µM)
MIC, fungus I [6]: 1 µg/mL (≈ 2.18 µM)
ED50 (μg/mL), protozoon C [4]: 8.03 µg/mL (≈ 17.5 µM)
MIC, bacterium E [14]: 128 µg/mL (≈ 278 µM)
MIC, bacterium D [15]: 8 µg/mL (≈ 17.4 µM)
MIC, fungus C [7]: 4 µg/mL (≈ 8.7 µM)
MIC, fungus A [8]: 3 µg/mL (≈ 6.53 µM)
MIC, fungus J [9]: 0.75 µg/mL (≈ 1.63 µM)
MIC, fungus D [10]: 1 µg/mL (≈ 2.18 µM)
MIC, fungus B [11]: 2 µg/mL (≈ 4.35 µM)
MIC, fungus E [12]: 1 µg/mL (≈ 2.18 µM)
MIC, fungus G [13]: 2 µg/mL (≈ 4.35 µM)
MIC, fungus F (Candida albicans TS3): 2 µg/mL (≈ 4.35 µM)

From patent US20070167408A1, “NOVEL ALKYL PHOSPHOLIPID DERIVATIVES WITH REDUCED CYTOTOXICITY AND USES THEREOF” (ZENTARIS GmbH, priority 2005, published 2007)
